Laboratory results as given in patent US20260243757A1, “IMMUNE CELL-DERIVED SECRETOME” (Agency for Science, Technology and Research, priority 2023, published 2026).

How the values were obtained:
D341 = assay: Drug treatment in secretome versus standard media (FIG. 41); type: cell-based, human
[1] = tested on: CHLA01 (primary tumour cells); assay: as above; type: cell-based, human; details: CHLA01 neurospheres
[2] = tested on: CHLA01R (recurrent/relapse tumour cells); assay: as above; type: cell-based, human; details: CHLA01R neurospheres
[3] = tested on: ATRT cell lines and medulloblastoma; assay: Drug efficacy in the presence of the secretome; type: cell-based, human; details: during early tumourigenesis
Medulloblastoma = assay: Ispinesib in PDX brain tumors implanted using secretome+Tumor (Batch 94B); type: in vivo, mice; details: 10 mg/kg intraperitoneally every four days for three doses, repeated on day 21
Method: (§1) Rag2/Severe combined immune deficiency (SCID) mice were bred and housed in a pathogen-free facility. Surgical implantation of tumour cells ([…]) into mouse cerebrum was performed using the method of the present disclosure previously described by studies in the art. The general recommendations in ARRIVE guidelines 2.0 (https://arriveguidelines.org/) were followed in the study of the present disclosure. The sample size of the present disclosure was small. […] The animals were randomly assigned into treatment versus control groups to have approximately equal number of animals per group. […] Treatment was delivered to animals assigned in treatment group, cage-by-cage. Blinding was not possible as the inventor of the present disclosure have a small team of 2-3 individuals working with the animals and the inventor of the present disclosure are all involved at various stages and day-to-day processes of the animal work. Separate batches comprising of various litters were used, minimizing bias from the same litter effect. The inventor of the present disclosure has previously published using this animal protocol and is not otherwise deposited in any repository/registry.
OTSSP167 was dissolved in a solution of dimethyl sulfoxide, Kolliphor® EL and sterile water. A daily dose of 5 mg/kg of OTSSP167 was administered to the mice via intraperitoneal injection for 14 days. […]

CHLA-02 [4] = assay: Proliferation assay (standard growth media), OTSSP167 dose-response; type: cell-based; details: Homo sapiens, 96 h, Day 4
Method: (§2) Tumour cells were seeded in quadruplicates for each treatment condition (FIG. 5B). OTSSP167 was added. Cell proliferation was determined, and optical density (OD) was measured using a fluorescence/luminescence detection System.

BT-37 [5] = assay: as above; type: cell-based, human
Method: as §2

six ATRT cell lines = assay: Proliferation assay (standard growth media), panel; type: cell-based, human; details: over 13 days
Method: as §2

CHLA-04 = assay: Proliferation assay (standard growth media), OTSSP167; type: cell-based, human; details: MELK-low CHLA-04; 50 nM dose
Method: as §2

BT-37 [6] = assay: Flow cytometry for apoptotic cell death (Annexin V/PI); type: cell-based, human; details: BT-37 cells; 48 hours of OTSSP167 treatment
Method: (§3) Tumour cells were treated in culture with OTSSP167 to detect apoptosis (FIG. 5C). At each timepoint, cells were harvested and stained with Annexin V-FITC and PI. Stained cells were then analysed by flow cytometry at the excitation wavelength of 488 nm (FITC) and 595 nM (PI). Cultured cells were treated with OTSSP167 to study the cell cycle changes. Cells were harvested and fixed with absolute ethanol. Fixed cells were stained with PI/RNase A master mix (PI and RNase A) prior to analysis by flow cytometry.

CHLA-02 [7] = assay: as above; type: cell-based, human; details: CHLA-02 cells; 48 hours of OTSSP167 treatment
Method: as §3

CHLA-02 and BT-37 cells = assay: Immunoblotting after OTSSP167 treatment; type: cell-based, human
Method: Cells were lysed in RIPA buffer with 1% Protease and Phosphatase Inhibitor Cocktail on ice. Protein samples were first denatured with 5% β-mercaptoethanol in Laemmli's buffer at 95° C. Protein concentration was determined using Protein Assay Kit. Protein lysates were resolved, and equal amounts of denatured proteins was run on NuPAGE 4-12% Bis-Tris Protein Gel and transferred onto PVDF membrane. Membrane blots for phosphorylated Histone H2A.X were blocked with 5% Bovine serum albumin (BSA) in 1× TBS-T ([…] Tris-buffered Saline, 0.1 % Tween® 20). Other membrane blots were blocked with 5% skim milk in 1× TBS-T for 1 hour and incubated with its respective primary antibodies at 4° C. overnight. Protein bands were visualized using an imaging system with Western blotting substrate. Primary antibodies used were: Eg5, cleaved PARP, β-actin, cleaved caspase-3, and p53, p-Histone H2A.X, p21. Secondary antibodies included: anti-rabbit IgG HRP-linked and anti-mouse IgG HRP linked.

[8] = tested on: autopsy-derived patient-derived orthotopic xenograft (PDOX) Model of ATRT; assay: Orthotopic xenograft survival, intraperitoneal OTSSP167; type: in vivo, mice; details: 5 mg/kg daily intraperitoneal for 14 days; p=0.032, Log-rank test
Method: as §1
OTSSP167 was dissolved in a solution of dimethyl sulfoxide, Kolliphor® EL and sterile water. […]
Mice were carefully monitored daily their fitness using a clinical staging system we previously published. […]

CHLA-02, BT-37 = assay: Cell proliferation assay (secretome-based or growth-media-based), DMSO or OTSSP167; set-up: species or system human
Method: Human myeloid-derived cells (U937) were seeded at a fixed density and stimulated with PMA and IL-4 for 48 h to obtain CD 11b+ cells. Stimulated human myeloid-derived macrophages were harvested without trypsinization (Biological replicate 1 in FIG. 4D and FIG. 5E) and with trypsinization (Biological replicate 2 and 3 in FIG. 4D and FIG. 5E). These cells highly express CD11b+ with or without trypsinization (FIG. 14A). CD11b+ cells were washed twice with PBS. CD11b+ cells were plated at a fixed density in 1 ml of pure RPMI (serum-free) to obtain CD11b+ supernatants (Condition 2). CD11b+ cells (same density) were co-incubated with tumour cells at 1:1 ratio in pure RPMI (serum-free) to obtain co-culture supernatant (Condition 3). Tumour cells were seeded at the same density to obtain tumour supernatant (Condition 1). […]
Tumour cells were suspended in 3 types of cell-free supernatants: CD 11b+ supernatant, tumour supernatant, and CD11b+-tumour co-culture supernatant. […] Cell viability was determined by a kit at 4 h, 24 h, 48 h, 72 h time points, over a period of 3 days. Optical density (OD) was measured using a fluorescence/luminescence detection system (FIGS. 4A, 4B, FIG. 18). All other absorbance (OD) was measured at 450 nm using a multilabel plate reader. Absorbance of wells with serum-free pure RPMI was used as blank.

BT-37 [9] = assay: Apoptosis assay of OTSSP167-treated cells, standard growth media versus six-factor secretome; type: cell-based, human
Method: (§4) Tumour cells were cultured in either standard growth media or six-factor-secretome for […] different duration −4 h, 24 h, 48 h and 96 h (FIG. 5G). To study the killing effect of OTSSP167, tumour cells cultured in each condition (standard growth media or six-factor-secretome) were treated with OTSSP167. Cells were harvested at respective timepoints and stained with FITC-Annexin V and/or Propidium lodide. Stained cells were then analysed by flow cytometry at the excitation wavelength of 488 nm (FITC) and 595 nM (PI). A total of 10,000 cells were analysed per measurement.

CHLA-02 [10] = assay: as above; type: cell-based, human; details: FIG. 37
Method: as §4

Daoy = assay: Drug treatment in secretome versus standard media (FIG. 41); type: cell-based, human
CHLA-02 [11] = assay: Photomicrographs of growth morphology in T75 flasks; type: cell-based, human; details: OTSSP167 in secretome versus standard growth media
another ATRT mouse model = details: cited from earlier work

SMILES: Cc1ccc(C(=O)N(CCCN)[C@@H](c2nc3cc(Cl)ccc3c(=O)n2Cc2ccccc2)C(C)C)cc1 [Ispinesib, (R)-N-(3-aminopropyl)-N-(1-(3-benzyl-7-chloro-4-oxo-3,4-dihydroquinazolin-2-yl)-2-methylpropyl)-4-methylbenzamide]
- cell death/survival with drug in secretome compared to standard media (D341): survive better
- cell death/survival with drug in secretome compared to standard media [1]: survive better
- cell death/survival with drug in secretome compared to standard media [2]: survive better
- drug efficacy in the presence of the secretome [3]: reduced
- efficacy in PDX brain tumors implanted using secretome+Tumor (Medulloblastoma): effective

SMILES: CC(=O)c1cnc2ccc(-c3cc(Cl)c(O)c(Cl)c3)nc2c1N[C@H]1CC[C@H](CN(C)C)CC1 [OTSSP167, 1-(6-(3,5-dichloro-4-hydroxyphenyl)-4-(((1r,4r)-4-((dimethylamino)methyl)cyclohexyl)amino)-1,5-naphthyridin-3-yl)ethenone]
- IC50 (CHLA-02 [4]): 20.8 nM
- IC50 (BT-37 [5]; Homo sapiens, 96 h, BT-37, Day 4): 70.4 nM
- effect against tumour cells (BT-37 [5]; MELK-high BT-37 cells, 5 nM dose): effective
- efficacy across panel of ATRT cell lines (dose-response) (six ATRT cell lines): efficacious across a panel of six ATRT cell lines in nanomolar ranges
- effect against tumour cells (CHLA-04): effective
- early and late apoptotic cells (BT-37 [6]): 58.1%
- early and late apoptotic cells (CHLA-02 [7]): 50.7%
- p-Histone H2A.X (DNA damage) (CHLA-02 and BT-37 cells; 24 h, 48 h and 72 h treatment): increased
- c-PARP (intrinsic apoptosis pathway) (CHLA-02 and BT-37 cells; OTSSP167 treatment): increased
- p53 (CHLA-02 and BT-37 cells; OTSSP167 treatment): increased
- overall survival of animals [8]: significantly improved
- OTSSP167 efficacy in six-factor-secretome compared to standard growth media (tumour proliferation) (CHLA-02, BT-37): decreased
- cell death with OTSSP167 in secretome compared to standard media conditions (BT-37 [9]; BT-37, FIG. 38): more cell death
- cell death of OTSSP167-treated BT-37 versus CHLA-02 in secretome (BT-37 [9]; in secretome after 24-48 h): more cell death than CHLA-02 cells
- cell death with OTSSP167 in secretome compared to standard media conditions (CHLA-02 [10]): more cell death
- cell death/survival with drug in secretome compared to standard media (Daoy): higher cell death
- cell death/survival with drug in secretome compared to standard media (D341): higher cell death
- cell death/survival with drug in secretome compared to standard media [1]: survive better
- cell death/survival with drug in secretome compared to standard media [2]: survive better
- drug efficacy in the presence of the secretome [3]: reduced
- growth morphology of tumour cells treated with OTSSP167 in secretome (CHLA-02 [11]): maintained their interlacing, web-like architecture
- blood-brain-barrier penetration (another ATRT mouse model): penetrate blood-brain-barrier
